This note sets out measurements from article PMC12195250, “Synthesis, Biological Evaluation, Molecular Dynamics, and QM-MM Calculation of Spiro-Acridine Derivatives Against Leishmaniasis” (Microorganisms, 2025).

Like-named read-outs stand apart in the source and are kept apart here.

The test system of data set [1] is L. amazonensis promastigotes (Strain MHOM/BR/PH8). The experiment in a line: Anti-promastigote effect, Neubauer chamber counting. It is filed as cell-based, Leishmania amazonensis. The following applies: 72 h incubation, read-out: L. amazonensis IC50PRO. As to the method: The promastigote cultures of L. infantum (Strain MHOM/BR/70/BH46) and L. amazonensis (Strain MHOM/BR/PH8) were kept in Schneider medium (Sigma-Aldrich, St. Louis, MO, USA) supplemented with 20% fetal bovine serum (FBS) and 1% streptomycin/penicillin in a B.O.D. incubator (J. Prolab, model JP. 100 LBCM/CPAM) at 26 °C. The promastigote strains were used in the exponential growth phase in all stages for experimental purposes.
The Neubauer chamber method was used to assess the inhibitory concentrations of the synthesized spiro-acridines capable of eliminating 50% of the promastigotes in cultures of L. amazonensis and L. infantum (IC50) strains. Promastigotes from both species were collected, counted, and diluted in Schneider’s medium (Sigma-Aldrich, St. Louis, MO, USA) supplemented with 20% fetal bovine serum (FBS) at a final concentration of 1 × 10^6 cells/mL. The evaluated promastigotes were then exposed to different concentrations of the tested compounds (10, 5, 2.5, 1.25, and 0.625 μg/mL). The positive control used the commercial drug Amphotericin B®, while the negative control consisted of promastigotes incubated in Schneider’s medium alone. After 72 h of incubation at 25 °C, culture growth was observed by counting the viable cells using a Neubauer chamber and calculated using the following Equation (1): No. Leishmania/mL = No. of cells counted × No. of Neubauer chamber(1) quadrants × the dilution used × 10^4 (Neubauer chamber correction factor)
The concentration parameter that inhibits 50% of parasite growth (IC50) was used to estimate the growth inhibition of the promastigote species of Leishmania sp. Thus, IC50 was determined by linear regression analysis with SPSS 8.0 software for Windows. Each test was performed in two independent experiments, with different cultures and in technical triplicate.

In data set [2] the test system is J774A.1 macrophages. The experiment in a line: Cytotoxic effect in J774 macrophage cultures, MTT. Format: cell-based. Conditions: read-out: CC50 (50% cytotoxic concentration in J774 macrophage). As for the experimental part: J774A.1 macrophages (ATCC TIB-67) were kept cryopreserved in a Falcon tube containing 5 mL of DMEM (Dulbecco’s modified Eagle medium) culture medium (Gibco®), supplemented with 10% inactivated fetal bovine serum, 1% non-essential amino acids, and 1% gentamicin sulfate. The tube was centrifuged at 200 rpm for 10 min. Afterward, the supernatant was discarded, and the cells were resuspended in the culture medium and transferred to a culture bottle kept in an incubator at 37 °C with 5% CO2. The assays were carried out in triplicate using a 96-well plate to evaluate the cytotoxic effect of the selected spiro-acridine compounds on J774 macrophage cultures. The compounds were diluted and seeded at predetermined concentrations (32, 16, 8, 4, and 2 μg/mL), parallel to the distribution of 1.0 × 10^5 J774 macrophages per well. The plate was incubated for two hours in a 5% CO2 incubator at 37 °C. Only the cells were incubated in the negative control without the tested molecules. In contrast, the positive control was performed by incubating the macrophages with the commercial drug Amphotericin B®. Later, 10 μL of the MTT reagent was added per well, and the cultures were re-incubated for 4 h. Finally, 50 μL of DMSO was added to each well, and the absorbance was read on a SpectraMAX GeminiXS plate spectrophotometer (Molecular Devices LLC, San Jose, CA, USA) at a wavelength of 570 nm. […]

For data set [3], the system named is human red blood peripheral cells (O+). The data set is described as follows: Hemocompatibility (hemolysis) in red blood cells. Format: cell-based. Conditions: 1 h at 37 °C. As for the experimental part:
The hemocompatibility of the spiro-acridine derivatives was determined using human red blood peripheral cells (O+) from healthy adults. The erythrocytes were diluted in phosphate-buffered saline (PBS) to a concentration of 5% in an 80 µL suspension and subsequently incubated with 20 µL of different concentrations of spiro-acridine derivatives and Amphotericin B® (400, 200, 100, 50, 25, 12,5, 6,25 and 3,12 μg/mL). Afterward, the samples were incubated for 1 h at 37 °C in a B.O.D incubator, and the reaction was stopped by adding 200 μL of PBS (1.5 mM KH2PO4, 8.1 mM Na2HPO4, 136.9 mM NaCl, and 2.6 mM KCl, pH 7.2). The samples were centrifuged at 2000 rpm for 10 min, at room temperature. The supernatants were collected and subjected to spectrophotometry using a spectrophotometer (model Biosystems ELx800, Curitiba, PR, Brazil) at 540 nm. The hemolysis percentage was determined as [(Abssam − Abscon)/(Abstot − Abscon) × 100], where Abssam refers to the absorbance of the sample, Abscon to the absorbance of the blank control (without compounds), and Abstot to the absorbance of total hemolysis (obtained by replacing the sample solution with an equal volume of Milli-Q water). The results were expressed as average hemolytic concentration (HC50), considering the positive control as 100% hemolysis.

Turning to `N#CC1=CC2(c3ccccc3Nc3ccccc32)N(c2ccc(Cl)cc2)C1=O` [ACMD-03, (E)1′-(4-chlorophenyl)-5′-oxo-1′, 5′-dihydro-10H-spiro{acridine-9,2′-pyrrole]-4′-carbonitrile], the IC50 in data set [1] came out at 11 µM. In data set [2], the CC50 is 27.2 µM. The “HC50 (concentration capable of promoting 50% hemolysis)” value in data set [3] was more than 400 µM.

For `COc1ccc(/C=N/N2C(=O)C(C#N)=CC23c2ccccc2Nc2ccccc23)cc1` [AMTAC-02, (E)-1′-((4-methoxybenzylidene)amino)-5′-oxo-1′,5′-dihydro-10H-spiro[acridine-9,2′-pyrrole]-4′-carbonitrile], the IC50 in data set [1] (Leishmania amazonensis) worked out at 0.73 µM. For the same molecule, in data set [3], the “HC50 (concentration capable of promoting 50% hemolysis)” value was more than 400 µM.
